Source: the NIST ThermoML archive (doi:10.1016/j.jct.2003.12.012)

What was measured:
[1] = Molar enthalpy of transition or fusion; conditions: Crystal; Adiabatic calorimetry
[2] = for mass density / vapor or sublimation pressure: Liquid; for mass density: Vibrating tube method
[3] = molar heat capacity at saturation pressure

c1ccc2c3c(sc2c1)CCCC3 [1,2,3,4-tetrahydrodibenzothiophene]
Conditions	Molar enthalpy of transition or fusion [kcal/mol]
[1]	3.348

[2]
Conditions	mass density [kg/m3]
323.14 K	1125.7
348.13 K	1105.2
373.12 K	1086
423.11 K	1046.8
448.11 K	1028.1

[2]
Conditions	Triple point temperature [K]	vapor or sublimation pressure [kPa]
359.98 K, Inclined piston gauge	–	0.0221
369.98 K, Inclined piston gauge	–	0.0414
379.97 K, Inclined piston gauge	–	0.0746
389.97 K, Inclined piston gauge	–	0.1296
400.17 K, Inclined piston gauge	–	0.2209
409.96 K, Inclined piston gauge	–	0.3567
419.97 K, Inclined piston gauge	–	0.5674
429.96 K, Inclined piston gauge	–	0.8785
439.96 K, Inclined piston gauge	–	1.328
449.96 K, Inclined piston gauge	–	1.962
450.48 K, Ebulliometric method (Recirculating still)	–	2.002
454.96 K, Inclined piston gauge	–	2.368
459.96 K, Inclined piston gauge	–	2.842
469.6 K, Ebulliometric method (Recirculating still)	–	3.993
478.25 K, Ebulliometric method (Recirculating still)	–	5.331
491.02 K, Ebulliometric method (Recirculating still)	–	8
500.6 K, Ebulliometric method (Recirculating still)	–	10.67
508.29 K, Ebulliometric method (Recirculating still)	–	13.32
516.36 K, Ebulliometric method (Recirculating still)	–	16.66
523.05 K, Ebulliometric method (Recirculating still)	–	19.94
531.82 K, Ebulliometric method (Recirculating still)	–	25.02
540.67 K, Ebulliometric method (Recirculating still)	–	31.18
549.55 K, Ebulliometric method (Recirculating still)	–	38.56
558.49 K, Ebulliometric method (Recirculating still)	–	47.38
567.47 K, Ebulliometric method (Recirculating still)	–	57.8
576.48 K, Ebulliometric method (Recirculating still)	–	70.09
585.54 K, Ebulliometric method (Recirculating still)	–	84.5
594.67 K, Ebulliometric method (Recirculating still)	–	101.29
603.84 K, Ebulliometric method (Recirculating still)	–	120.72
Crystal, Adiabatic calorimetry	275.03	–

molar heat capacity [J/K/mol], [3]
Conditions	Crystal	Liquid
4.929 K, Vacuum adiabatic calorimetry	0.32	–
5 K, Vacuum adiabatic calorimetry	0.33	–
5.867 K, Vacuum adiabatic calorimetry	0.56	–
6.798 K, Vacuum adiabatic calorimetry	0.931	–
7.734 K, Vacuum adiabatic calorimetry	1.41	–
8.759 K, Vacuum adiabatic calorimetry	2.08	–
9.819 K, Vacuum adiabatic calorimetry	2.94	–
10 K, Vacuum adiabatic calorimetry	3.08	–
10.94 K, Vacuum adiabatic calorimetry	3.96	–
12.2 K, Vacuum adiabatic calorimetry	5.23	–
13.6 K, Vacuum adiabatic calorimetry	6.8	–
15.14 K, Vacuum adiabatic calorimetry	8.647	–
16.83 K, Vacuum adiabatic calorimetry	10.74	–
18.67 K, Vacuum adiabatic calorimetry	13.06	–
20 K, Vacuum adiabatic calorimetry	14.74	–
20.68 K, Vacuum adiabatic calorimetry	15.6	–
22.91 K, Vacuum adiabatic calorimetry	18.38	–
25.4 K, Vacuum adiabatic calorimetry	21.41	–
28.17 K, Vacuum adiabatic calorimetry	24.67	–
30 K, Vacuum adiabatic calorimetry	26.76	–
31.26 K, Vacuum adiabatic calorimetry	28.16	–
34.71 K, Vacuum adiabatic calorimetry	31.86	–
38.53 K, Vacuum adiabatic calorimetry	35.74	–
40 K, Vacuum adiabatic calorimetry	37.17	–
42.79 K, Vacuum adiabatic calorimetry	39.83	–
47.54 K, Vacuum adiabatic calorimetry	44.15	–
50 K, Vacuum adiabatic calorimetry	46.29	–
52.85 K, Vacuum adiabatic calorimetry	48.69	–
58.73 K, Vacuum adiabatic calorimetry	53.4	–
59.8 K, Vacuum adiabatic calorimetry	54.26	–
60 K, Vacuum adiabatic calorimetry	54.39	–
65.16 K, Vacuum adiabatic calorimetry	58.28	–
65.33 K, Vacuum adiabatic calorimetry	58.42	–
70 K, Vacuum adiabatic calorimetry	61.88	–
71.56 K, Vacuum adiabatic calorimetry	63.02	–
78.46 K, Vacuum adiabatic calorimetry	67.87	–
80 K, Vacuum adiabatic calorimetry	68.94	–
85.75 K, Vacuum adiabatic calorimetry	72.84	–
90 K, Vacuum adiabatic calorimetry	75.67	–
90.98 K, Vacuum adiabatic calorimetry	76.33	–
93.89 K, Vacuum adiabatic calorimetry	78.25	–
99.3 K, Vacuum adiabatic calorimetry	81.84	–
100 K, Vacuum adiabatic calorimetry	82.3	–
108.29 K, Vacuum adiabatic calorimetry	87.72	–
117.93 K, Vacuum adiabatic calorimetry	93.99	–
120 K, Vacuum adiabatic calorimetry	95.28	–
127.8 K, Vacuum adiabatic calorimetry	100.49	–
138.76 K, Vacuum adiabatic calorimetry	107.84	–
140 K, Vacuum adiabatic calorimetry	108.6	–
150.73 K, Vacuum adiabatic calorimetry	116.11	–
160 K, Vacuum adiabatic calorimetry	122.46	–
162.76 K, Vacuum adiabatic calorimetry	124.52	–
174.79 K, Vacuum adiabatic calorimetry	133.17	–
180 K, Vacuum adiabatic calorimetry	136.76	–
186.82 K, Vacuum adiabatic calorimetry	141.95	–
198.84 K, Vacuum adiabatic calorimetry	151.12	–
199.7 K, Vacuum adiabatic calorimetry	151.8	–
200 K, Vacuum adiabatic calorimetry	151.75	–
210.84 K, Vacuum adiabatic calorimetry	160.54	–
212.28 K, Vacuum adiabatic calorimetry	161.67	–
220 K, Vacuum adiabatic calorimetry	167.35	–
222.84 K, Vacuum adiabatic calorimetry	170.12	–
225.76 K, Vacuum adiabatic calorimetry	172.63	–
232.14 K, Vacuum adiabatic calorimetry	177.99	–
234.83 K, Vacuum adiabatic calorimetry	180.25	–
238.71 K, Vacuum adiabatic calorimetry	183.61	–
240 K, Vacuum adiabatic calorimetry	183.48	–
247.47 K, Vacuum adiabatic calorimetry	192.11	–
249.42 K, Vacuum adiabatic calorimetry	193.97	–
251.32 K, Vacuum adiabatic calorimetry	196.13	–
260 K, Vacuum adiabatic calorimetry	200.99	–
262.17 K, Vacuum adiabatic calorimetry	216.81	–
263.64 K, Vacuum adiabatic calorimetry	221.51	–
263.71 K, Vacuum adiabatic calorimetry	222.9	–
275.03 K, Vacuum adiabatic calorimetry	216.13	256.66
280 K, Vacuum adiabatic calorimetry	–	259.07
282.32 K, Vacuum adiabatic calorimetry	–	260.24
283.78 K, Vacuum adiabatic calorimetry	–	260.98
287.63 K, Vacuum adiabatic calorimetry	–	262.81
291.46 K, Vacuum adiabatic calorimetry	–	264.72
298.15 K, Vacuum adiabatic calorimetry	–	268.09
300 K, Vacuum adiabatic calorimetry	–	269.02
300.54 K, Vacuum adiabatic calorimetry	–	269.29
301.1 K, Vacuum adiabatic calorimetry	–	269.61
315.41 K, Vacuum adiabatic calorimetry	–	277.04
320 K, Vacuum adiabatic calorimetry	–	279.47
330.79 K, Vacuum adiabatic calorimetry	–	285.2
340 K, Vacuum adiabatic calorimetry	–	290.16
343.22 K, Vacuum adiabatic calorimetry	–	291.9
359.69 K, Vacuum adiabatic calorimetry	–	300.83
360 K, Vacuum adiabatic calorimetry	–	301
376.04 K, Vacuum adiabatic calorimetry	–	309.7
380 K, Vacuum adiabatic calorimetry	–	311.85
392 K, Vacuum adiabatic calorimetry	–	318.35
400 K, Vacuum adiabatic calorimetry	–	322.67
408.31 K, Vacuum adiabatic calorimetry	–	327.12
420 K, Vacuum adiabatic calorimetry	–	333.33
424.94 K, Vacuum adiabatic calorimetry	–	335.95
437.47 K, Vacuum adiabatic calorimetry	–	342.54
440 K, Small sample (50 mg) DSC	–	344.04
460 K, Small sample (50 mg) DSC	–	355.38
480 K, Small sample (50 mg) DSC	–	366.09
500 K, Small sample (50 mg) DSC	–	376.9
520 K, Small sample (50 mg) DSC	–	387.66
540 K, Small sample (50 mg) DSC	–	398.39
560 K, Small sample (50 mg) DSC	–	409.11
580 K, Small sample (50 mg) DSC	–	419.8
600 K, Small sample (50 mg) DSC	–	430.43
